Columns and labels:
[1] = system: carrot root cambium-containing explant; assay: Cell line induction in carrot explant with varying kinds of auxins in induction medium; assay type: cell-based, Daucus carota L.; conditions: for Cell line induction pattern (in words): auxin used in induction medium; for Reaction with respect to cambium: auxins at the same concentration in induction medium, after osmotic stress
Protocol: A carrot (Daucus carota L.) was prepared and surface-sterilized in the same manner as in Example 1-1. Then, the prepared sample was treated with osmotic stress in the same manner as in Example 1-2 and Example 1-3, and then a cambium-derived cell line was induced from the carrot.
Also, other plant hormone auxins, including IAA, IBA, picloram, 2,4-D, CPA and NAA, were used at the same concentration to examine the influence of the hormone used in induction medium.

[2] = system: ginseng root cambium-containing explant; assay: Cell induction in ginseng explant cultured in 2,4-D-containing medium; assay type: cell-based; conditions: about 7-14 days after yellowing
Protocol: Meanwhile, in order to examine the influence of the hormone used in the induction medium, the explant was cultured in a 2,4-D-containing medium, which was not the cambium-derived cell line induction medium and has been used in the conventional culture of general ginsengs. […] In other words, it could be seen that, when 2,4-D was used, cell line was induced all other tissues, non-specifically to the cambium.
As shown in FIG. 3(b), when a general culture system containing 2,4-D was used in culture, cells were induced from various tissues (cortex, phloem, xylem, cambium, pith, etc.) present in the entire cross section, and the various cells were mixed with each other. Thus, the induced and proliferated cells had heterogeneity. […] Thus, the induced cells had homogeneity.

[3] = system: ginseng cambium-derived cell line; assay: Proliferation of ginseng cambium-derived cell line in growth medium; assay type: cell-based; conditions: growth medium containing IAA, not 2,4-D
Protocol: As shown in FIG. 3(a), after the explant was cultured in medium 2 of Example 1 to necrotize tissues other than the cambium, it was subcultured in medium 3. Medium 3 is an optimal medium for the proliferation of the cambium-derived cell line and is based on the basal salt composition shown in Table 6. When the cambium-derived homogeneous cell line having the ability to divide was cultured in medium 3, it continually divided and proliferated. After about 10-20 days of the culture, the cambium-derived cell line was isolated, and the isolated cell line was allowed to proliferate again in the same medium (medium 3).

[4] = system: true wild ginseng adventitious root cambium-derived cell line; assay: Proliferation of true wild ginseng adventitious root cambium-derived cell line in growth medium; assay type: cell-based; conditions: hormone used instead of 2,4-D in medium 3
Description: As a result, the cambium-derived homogeneous cell line having the ability to divide continually divided and proliferated, and thus after about 10-20 days of the culture, the cambium-derived homogeneous cell line having the ability to divide could be isolated. The true wild ginseng cambium-derived homogeneous cell line thus isolated was allowed to proliferate again by culturing it in the same medium. […] Meanwhile, in the true wild ginseng adventitious root cambium-containing explant in Example 2-1, the cell line was allowed to proliferate in the same manner as in Example 2, except that IBA was used instead of 2,4-D in Table 7.

MMP-1 = assay: Inhibition of MMP-1 expression caused by UV light (UVB) in NHF cells; assay type: cell-based, human; conditions: 10 uM, 40 mJ UVB, 48 hours, No UV = 100, Control UV = 230
Protocol: When MMPs are increased due to exposure to UV light, the increased MMPs degrade skin collagen to form skin wrinkles. Thus, the following test was carried out in order to examine whether MMP-1 expression increased due to UV light is inhibited by an extract or culture medium of the true wild ginseng cambium-derived homogeneous cell line.
NHF (normal human fibroblast) cells used in the test were isolated from the fetal penis prepuce and cultured. The culture medium was prepared by adding 10% fetal bovine serum (FBS, Hyclone, Logan, Utah, USA), inactivated by heating at 56° C. for 30 minutes, 100 unit/ml of penicillin, 100 μg/ml of streptomycin and 300 μg/ml of glutamine to DMEM medium (Invitroge Gibco life tech. Vienna, Austriea). The cells were cultured in the medium in a 5% CO2 incubator at a temperature of 37° C. and a humidity of 95% and subcultured at 3-4-day intervals, immediately before the cells were fused with each other.
NHF(p6) cells were dispensed into a 12-well plate at a density of 75,000 cells/well and starved for 24 hours. Then, the cells were radiated with 40 mJ of UVB and treated with varying concentrations of each sample for 48 hours. Then, an experiment was carried out using a kit (Amersham, RPN 2610). As a positive control group, 10 μM retinoic acid was used. […]

Compound | Cell line induction pattern (in words) [1] | Reaction with respect to cambium [1] | also measured
O=C(O)COc1ccc(Cl)cc1Cl [2,4-D, 2,4-dichlorophenoxyacetic acid] | the cell line was induced throughout the whole explant rather than with respect to the cambium | − | Cell induction pattern (in words) [2]: cells were induced throughout the whole cross section
O=C(O)COc1ccc(Cl)cc1 [CPA] | the cell line was induced throughout the whole explant rather than with respect to the cambium | − | 
O=C(O)Cc1c[nH]c2ccccc12 [IAA, indole-3-acetic acid] | the homogeneous cell line was induced with respect to the cambium |  | Proliferation in growth medium (in words) [3]: did not proliferate and showed a tendency to differentiate; Proliferation in growth medium (in words) [4]: did not differentiate and showed a tendency to differentiate
O=C(O)CCCc1c[nH]c2ccccc12 [IBA, indole-3-butyric acid] | the homogeneous cell line was induced with respect to the cambium |  | Proliferation in growth medium (in words) [4]: did not differentiate and proliferated
O=C(O)Cc1cccc2ccccc12 [NAA] | the cell line was induced throughout the whole explant rather than with respect to the cambium | − | Root induction with the passage of time (in words) ([1]; after about 4 weeks): a root was induced and differentiated in the cambium
Nc1c(Cl)c(Cl)nc(C(=O)O)c1Cl [Picloram, picloram] | the cell line was induced throughout the whole explant rather than with respect to the cambium | − | 
CC1=C(/C=C/C(C)=C/C=C/C(C)=C/C(=O)O)C(C)(C)CCC1 [Retinoic acid, retinoic acid] |  |  | MMP-1 expression, % of control (MMP-1): 85 % of control
